# Experimental data: US10927101B2, “Neopetrosides A and B, and synthesis method thereof” (INJE UNIVERSITY INDUSTRY-ACADEMIC COOPERATION FOUNDATION, priority 2016, dated 2021)
# pIC50: −log10 of the molar value. “Also recorded” adds a separate entry of the source.
# What was measured:
# [1] = system: h9c2 cells; experiment: Oxygen consumption rate (OCR) / ECAR measurement with XF24 analyzer; type: cell-based
# Procedure: For this, the basal oxygen consumption rate (OCR), respiratory related to ATP (adenosine triphosphate), proton leak, maximal capacity and mitochondrial OCR were confirmed.
# First, to measure OCR, h9c2 cells were dispensed at 2×10^4 cells/well in an XF24 cell plate (Seahorse Bioscience, Billerica, Mass., USA) and cultured for 16 hours. Thereafter, cells were dispensed with various concentrations of NPS A and cultured for another one hour. After 1 hour, the medium was replaced with 500 μL of XF assay medium-modified DMEM (XF Assay Medium-modified DMEM, Seahorse Bioscience, Billerica, Mass., USA) and incubated for 1 hour in a incubator at 37° C. in absence of CO2.
# OCR was measured using an XF24 analyzer (Seahorse Bioscience, Billerica, Mass., USA) and XF24 software. After OCR measurement, the XF 24 assay results were normalized to the cell number and the number of cells in each well was counted by a Luna™ automated cell counter (Logos, Annandale, Va., USA).
# [2] = system: ischemic reperfusion heart model; experiment: Ischemic reperfusion heart model (Langendorff perfused rat heart); type: in vivo, SD rats
# Procedure: 8-week-old male SD rats (200-250 g) were anesthetized by intraperitoneal injection of sodium pentobarbital (100 mg/kg). The chest cavity was exposed and a glass cannula was inserted into the aorta. The heart was quickly cut into thoracotomy, perfused with a normal Tyrode's solution in a Langendorff system and equilibrated with 95% O2 and 5% CO2 at 37° C. for 10 min to remove all blood. The heart of the rat was extirpated and the experiment was performed using a non-circulating system. First, ischemic reperfusion (I/R) model and drug treatment group (NPS A treatment; NPS A 10 μM treatment after ischemia reperfusion) were performed and hypoxic solution was flowed for 30 minutes. After 30 minutes, the normal tyrode solution and NPS A were treated together to restore cardiac function and confirm changes in electrocardiogram. […] After global ischemia (initiating reperfusion), 10 μM of NPS A was administered for 30 minutes.
# [3] = system: h9c2 cells; experiment: Mitochondrial ATP level (Mitochondrial ToxGlo assay); type: cell-based; settings: h9c2 cells, 0, 3 or 10 μM NPS A for 1 hour
# Procedure: Furthermore, mitochondrial ATP levels were measured using the Mitochondrial T ToxGlo™ assay (Promega, Madison, Wis., USA) according to the manufacturer's instructions.
# Briefly, h9c2 cells were dispensed at 2×10^6 cells/well in a 60 mm tissue culture plate and cultured for 16 hours and treated with 0, 3, or 10 μM NPS A for 1 hour. The treated cells were all collected and resuspended by pipetting until the cells were uniformly dispersed. The resuspended h9c2 cells were dispensed at 2×10^4 cells/well in a 96-well plate and the plates were centrifuged at 200×g for 10 minutes to remove the medium. Thereafter, 50 μL of fresh medium (except for glucose, containing 10 mM galactose) was added.
# The cells were incubated in a humidified incubator at 37° C. supplied with CO2 for 90 minutes. Then, the assay solution (100 μL) was added to the plate and reacted at room temperature for 30 minutes. Luminescence was measured using a luminometer (Molecular Device, Sunnyvale, Calif., USA).
# [4] = Solubility of NPS A in water and organic solvents; type: physicochemical
# [5] = system: h9c2 cells; experiment: MTT toxicity assay in h9c2 myocardial cells; type: cell-based; settings: 24 hours treatment
# Procedure: In h9c2 cells, myocardial cells, the toxicity of NPS A extracted from Neopetrosia sp. Of Example 1 was confirmed.
# The h9c2 cells were dispensed at 2×10^4 cells/well in a 96-well tissue culture plate and cultured for 16 hours. Thereafter, various concentrations of NPS A were treated and cultured for additional 24 hours.
# After the culture, a quantitative colorimetric assay using MTT(3-(4,5-dimethylthiazol-2-yl)-2,5-diphenyltetrazolium bromide (Sigma-Aldrich, St. Louis, Mo., USA) was performed to confirm the survival rate of the cells.
# The degree of reduction of MTT to intracellular formazan was confirmed by measuring the optical density at 570 nm using a microplate reader (Molecular device, Sunnyvale, Calif., USA).
# [6] = target: mTOR (mammalian target of rapamycin) (Homo sapiens, UniProt P42345); experiment: Kinase screening and dose-dependence, mTOR; type: biochemical
# Procedure: (§1) First, kinases regulated by NPS A were screened using a set of kinases related to cardiovascular diseases and diabetes.
# (§2) The activity of GSK-3 alpha, GSK-3 beta and mTOR kinase regulated by NPS A was measured to determine the half maximal inhibition dosage.
# [7] = system: h9c2 cells; experiment: Glycolysis activity, capacity and reserve with XF24 analyzer; type: cell-based; settings: 10 μM NPS A compared to 20 μM or 30 μM, 1 hour
# Procedure: After treating h9c2 cells with NPS A, the glycolysis activity, the glycolysis capacity and the glycolysis reserve were confirmed using an XF24 analyzer.
# h9c2 cells were treated sequentially with 10 mM glucose (G), 1 μM oligomycin (O) and 10 mM 2-dioxyglucose (2DG), treated with NPS A for 1 hour and then measured with an XF24 analyzer.
# [8] = target: GSK-3β (Homo sapiens, UniProt P49841); experiment: Kinase screening and IC50 determination, GSK-3β; type: biochemical
# Procedure: as §1, §2
# [9] = target: GSK-3α (Glycogen synthase kinase-3α) (Homo sapiens, UniProt P49840); experiment: Kinase screening and IC50 determination, GSK-3α; type: biochemical
# Procedure: as §1, §2
# [10] = system: mitochondria extracted from the heart of rats; experiment: Oxidative phosphorylation in mitochondria extracted from NPS A-treated rat heart; settings: mitochondria of I/R rat heart, NPS A treatment
# [11] = system: candidate kinases of the first type (cardiovascular diseases); experiment: Kinase screening, set of kinases related to cardiovascular diseases; type: biochemical
# From the text: as §1
# [12] = kinase screening, kinases related with diabetes
# Chain of GSK-3α (Glycogen synthase kinase-3α) (P49840 whole entry, species assumed): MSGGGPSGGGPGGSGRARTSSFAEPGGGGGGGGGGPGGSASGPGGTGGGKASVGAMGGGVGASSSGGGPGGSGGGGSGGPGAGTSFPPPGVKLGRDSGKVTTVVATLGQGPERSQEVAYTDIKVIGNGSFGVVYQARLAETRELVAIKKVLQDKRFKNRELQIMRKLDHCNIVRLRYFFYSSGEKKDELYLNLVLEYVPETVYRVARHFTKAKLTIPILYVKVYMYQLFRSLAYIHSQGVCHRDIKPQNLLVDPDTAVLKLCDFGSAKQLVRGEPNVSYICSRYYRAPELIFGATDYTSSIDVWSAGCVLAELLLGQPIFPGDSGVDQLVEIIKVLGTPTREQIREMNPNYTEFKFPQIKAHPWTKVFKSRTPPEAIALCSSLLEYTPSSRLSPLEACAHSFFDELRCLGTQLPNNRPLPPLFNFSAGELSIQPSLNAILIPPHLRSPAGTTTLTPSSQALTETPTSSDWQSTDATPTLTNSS
# Chain of GSK-3β (P49841 whole entry, species assumed): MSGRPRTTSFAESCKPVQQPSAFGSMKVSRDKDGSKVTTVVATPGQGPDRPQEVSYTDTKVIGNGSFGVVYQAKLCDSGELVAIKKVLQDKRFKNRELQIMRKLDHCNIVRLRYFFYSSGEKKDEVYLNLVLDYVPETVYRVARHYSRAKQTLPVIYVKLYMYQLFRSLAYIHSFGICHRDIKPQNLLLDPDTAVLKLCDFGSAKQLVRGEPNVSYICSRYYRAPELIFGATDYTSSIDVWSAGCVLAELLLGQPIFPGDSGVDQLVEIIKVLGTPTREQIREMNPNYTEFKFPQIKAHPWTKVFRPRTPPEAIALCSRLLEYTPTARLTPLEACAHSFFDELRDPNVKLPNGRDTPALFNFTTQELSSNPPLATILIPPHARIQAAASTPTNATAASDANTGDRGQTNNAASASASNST
structure (smiles),measurement,setting,value
"O=C([O-])c1ccc[n+](C2OC(COC(=O)c3ccc(O)cc3)C(O)C2O)c1 (centres unmarked) [NPS A, Neopetroside A]",OCR/ECAR ratio,[1],increased
same,basal ECAR (extracellular acidification rate),[1],increased
same,basal OCR,[1]; 1 hour treatment,up-regulated; also recorded: increased
same,mitochondrial OCR,[1]; 1 hour treatment,up-regulated
same,oxidative phosphorylation,[1]; 1 hour treatment,up-regulated
same,respiration associated with ATP,[1]; 1 hour treatment,up-regulated
same,cardiac rhythm,[2]; 10 μM NPS A during reperfusion,recovered
same,size of the heart infarction,[2]; 10 μM NPS A during reperfusion,significantly reduced
same,left ventricular pressure (LV pressure),[2]; 10 μM NPS A for 30 minutes during reperfusion after 30 minutes global ischemia,effectively restored
same,ATP synthesis,[3],stimulates; also recorded: up-regulated
same,intracellular ATP levels,[3],increases
same,solubility in other organic solvents,[4]; other organic solvents,not well soluble
same,solubility in pyridine and methanol,[4]; pyridine and methanol,dissolves in pyridine and methanol
same,solubility in water,[4]; water,dissolves in water
same,concentration up to which not toxic to the myocardial cells (MTT survival),[5],≤ 300 µM
same,mTOR activity according to doses of NPS A,[6]; different doses of NPS A,no change
same,"kinase screening result, mTOR",[6]; [12],inhibited
same,glycolysis activity,[7],greatest
same,glycolysis capacity,[7],greatest
same,pIC50,[8],3.91
same,"kinase screening result, GSK-3β",[8]; [12],inhibited
same,pIC50,[9],3.85
same,"kinase screening result, GSK-3α",[9]; [12],inhibited
same,respiratory control ratio (RCP),[10],recovered
same,three-stage respiratory depression in mitochondria (OCR),[10],significantly protected
same,regulation of candidate kinases of the first type,[11],did not regulate most
